Measurements from ChEMBL document CHEMBL1158284, “Biological activities of the nortropane alkaloid, calystegine B2, and analogs: structure-function relationships” (J Nat Prod, 1996).
Active and inactive are the calls of the source. No cut-off for these calls is given here.

Columns and labels:
Prunus dulcis [1] = experiment: (§1) Inhibition of almond beta-glucosidase
Aspergillus niger [2] = experiment: (§2) Inhibition of Aspergillus niger alpha-galactosidase
Sinorhizobium meliloti [3] = experiment: Antibacterial activity against Cac gene-deficient Rhizobium meliloti GMI13; type: functional, organism-based
Medicago sativa [4] = experiment: Allellopathic effect in Medicago sativa assessed as reduction in root elongation at 5 mM after 19 hrs; type: functional; set-up: scale not given: the % may be the effect or the level left
[5] = test system: Agrobacterium tumefaciens; experiment: Antibacterial activity against Cac gene-deficient Agrobacterium tumefaciens C58C1; type: functional, organism-based
Medicago sativa [6] = experiment: Allellopathic effect in Medicago sativa assessed as reduction in root elongation at 10 mM after 19 hrs; type: functional; set-up: scale not given: the % may be the effect or the level left
Aspergillus niger [7] = experiment: Inhibition of Aspergillus niger alpha-galactosidase 1.0 mg/mL
Sinorhizobium meliloti [8] = experiment: Antibacterial activity against Cac gene-deficient Rhizobium meliloti RCR2011; type: functional, organism-based
Prunus dulcis [9] = experiment: Inhibition of almond beta-glucosidase at 0.5 mg/mL
Medicago sativa [10] = experiment: Allellopathic effect in Medicago sativa assessed as inhibition of seed germination up to 10 mM; type: functional, organism-based
Medicago sativa [11] = experiment: Allellopathic effect in Medicago sativa assessed as reduction in root elongation at 10 mM after 43 hrs; type: functional; set-up: scale not given: the % may be the effect or the level left
Medicago sativa [12] = experiment: Allellopathic effect in Medicago sativa assessed as reduction in root elongation at 5 mM after 43 hrs; type: functional; set-up: scale not given: the % may be the effect or the level left
Agrobacterium rhizogenes = experiment: Antibacterial activity against Cac gene-deficient Agrobacterium rhizogenes HRI; type: functional, organism-based
Sinorhizobium meliloti [13] = experiment: Induction of Cac gene-expressing Rhizobium meliloti 41 growth; type: functional, organism-based
[14] = as §1; set-up: species or system Prunus dulcis
Medicago sativa [15] = experiment: Allellopathic effect in Medicago sativa assessed as inhibition of seed germination at 5 mM; type: functional
[16] = as §2

SMILES	Activity (Prunus dulcis [1])	Activity (Aspergillus niger [2])	Activity (Sinorhizobium meliloti [3])	Activity (Medicago sativa [4])	Activity [5]	Activity (Medicago sativa [6])	Activity (Aspergillus niger [7])	Activity (Sinorhizobium meliloti [8])	Activity (Prunus dulcis [9])	Activity (Medicago sativa [10])	Activity (Medicago sativa [11])	Activity (Medicago sativa [12])	Activity (Agrobacterium rhizogenes)	Activity (Sinorhizobium meliloti [13])	Ki [14]	inhibition at 5000 µM (Medicago sativa [15])	Ki [16]
CN1[C@@H]2CC[C@@]1(O)[C@@H](O)[C@H](O)[C@H]2O	inactive	Active	–	–	–	–	–	–	–	–	–	–	–	–	–	–	–
O[C@H]1[C@H](O)[C@H](O)[C@@]2(O)CC[C@@H]1N2	–	–	inactive	20%	inactive	25%	inactive	inactive	inactive	inactive	18%	8%	inactive	–	–	–	–
O[C@@H]1[C@@H](O)[C@H](O)[C@]2(O)CC[C@H]1N2 [CALYSTEGINE B2]	–	–	inactive	37%	inactive	46%	–	inactive	–	–	40%	12%	inactive	Active	4 µM	50%	7 µM
